Counter-ions that a name gives are not always drawn.
Columns and labels:
CCK-B receptor = target: T1, CCK-B receptor (Mus musculus, UniProt P56481); experiment: CCK-B receptor antagonism: displacement of [3H]CCK-8 from crude membrane of cerebral cortex; format: binding, mouse (male ddY); details: [3H]CCK-8 1 nM, 90 min, 25° C.
T1 construct: crude membrane specimen from mouse cerebral cortex; from tissue; host or cells: cerebral cortex of male ddY mice, crude membranes
T1 sequence (P56481 1-453): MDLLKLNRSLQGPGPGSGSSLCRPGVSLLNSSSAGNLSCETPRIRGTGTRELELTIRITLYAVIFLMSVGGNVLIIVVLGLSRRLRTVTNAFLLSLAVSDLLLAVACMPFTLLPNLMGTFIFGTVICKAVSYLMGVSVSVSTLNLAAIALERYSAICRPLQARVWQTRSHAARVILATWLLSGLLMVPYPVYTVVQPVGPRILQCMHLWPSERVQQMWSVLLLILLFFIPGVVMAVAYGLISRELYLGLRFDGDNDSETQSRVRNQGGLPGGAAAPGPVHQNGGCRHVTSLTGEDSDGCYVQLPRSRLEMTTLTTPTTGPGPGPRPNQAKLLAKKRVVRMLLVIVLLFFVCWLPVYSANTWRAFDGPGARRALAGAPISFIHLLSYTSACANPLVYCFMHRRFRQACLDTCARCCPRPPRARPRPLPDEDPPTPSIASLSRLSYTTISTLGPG
Protocol: (§1) The pharmacological effect of compounds (I) prepared in Examples above were evaluated in vitro with respect to antagonistic activity against gastrin receptor, CCK-B receptor or CCK-A receptor, using fundic gland cells of guinea pig, crude membrane specimen from mouse cerebral cortex, or crude membrane specimen from mouse pancreas, respectively.
(§2) Male Hartley guinea pig (450-600 g) or male ddY mouse (24-30 g) were used.
(§3) (2) CCK-A Receptor Antagonism and CCK-B Receptor Antagonism Preparation of CCK receptor preparations Male ddY mice (24 to 30 g) were killed by decapitation and cerebral cortex (CCK-B) and pancreas (CCK-A) were extracted immediately. Each of cerebral cortex and pancreas was mixed with 50 mM Tris-HCl buffer (pH 7.4) and homogenized with a teflon-glass homogenizer and polytron homogenizer to obtain crude membrane specimens.
(§4) Preparation of test compounds and procedures of displacing assay
(§5) A 1M solution of a compound to be tested in DMSO is prepared and diluted with 50% DMSO to obtain a ten-fold dilution series.
(§6) The reaction is initiated by the addition of crude membrane specimen to solutions of different concentration each containing [^3 H]CCk-8 (final concentration, 1 nM). The mixture is incubated for 90 min at 25° C., filtered through glass filter with aspiration and washed with a cooled 50 mM Tris buffer. After the addition of Aquazol-2 cocktail the radioactivity is counted. The same procedure was repeated using 50% DMSO solution or Ceruletide (final concentration, 1 μM) instead of a solution of test compound so as to obtain the control value regarding total binding or the value regarding non-specific binding, respectively.
(§7) The IC50 was determined by plotting the ratio (%) of specific binding of a test compound to that of control on semilogarithmic graph and obtaining the concentration corresponding to 50%, wherein: specific binding of control=total binding (cpm)--non-specific binding (cpm); and specific binding of test compound=total binding (cpm)--non-specific binding (cpm).

CCK-A receptor = target: T2, CCK-A receptor (Mus musculus, UniProt O08786); experiment: CCK-A receptor antagonism: displacement of [3H]CCK-8 from crude membrane of pancreas; format: binding, mouse (male ddY); details: [3H]CCK-8 1 nM, 90 min, 25° C.
T2 construct: crude membrane specimen from mouse pancreas; from tissue; host or cells: pancreas of male ddY mice, crude membranes
T2 sequence (O08786 1-436): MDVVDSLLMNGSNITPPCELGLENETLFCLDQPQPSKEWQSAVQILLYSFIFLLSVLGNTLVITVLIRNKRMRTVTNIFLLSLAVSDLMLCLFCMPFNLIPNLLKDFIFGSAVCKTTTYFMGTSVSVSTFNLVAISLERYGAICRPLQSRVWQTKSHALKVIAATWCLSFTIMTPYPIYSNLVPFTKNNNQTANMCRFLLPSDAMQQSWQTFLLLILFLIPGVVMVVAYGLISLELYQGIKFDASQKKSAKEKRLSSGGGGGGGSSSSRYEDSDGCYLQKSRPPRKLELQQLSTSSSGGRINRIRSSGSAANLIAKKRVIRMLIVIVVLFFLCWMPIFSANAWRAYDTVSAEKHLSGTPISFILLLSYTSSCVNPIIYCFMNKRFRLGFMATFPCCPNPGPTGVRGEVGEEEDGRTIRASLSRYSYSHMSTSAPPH
Protocol: as §1, §2, §3, §4, §5, §6, §7

gastrin receptor = target: T3, gastrin receptor (Cavia porcellus, UniProt H0VZC5); experiment: Gastrin receptor antagonism: displacement of 125I-labeled gastrin from gastric glands; format: binding, guinea pig (male Hartley); details: guinea pig fundic gastric glands; 125I-gastrin 0.2 nM; 30 min, 25° C.
T3 construct: stomach was extracted from each animal immediately, from which gastric glands were prepared; from tissue; host or cells: gastric (fundic) glands of male Hartley guinea pigs
T3 sequence (H0VZC5 1-426): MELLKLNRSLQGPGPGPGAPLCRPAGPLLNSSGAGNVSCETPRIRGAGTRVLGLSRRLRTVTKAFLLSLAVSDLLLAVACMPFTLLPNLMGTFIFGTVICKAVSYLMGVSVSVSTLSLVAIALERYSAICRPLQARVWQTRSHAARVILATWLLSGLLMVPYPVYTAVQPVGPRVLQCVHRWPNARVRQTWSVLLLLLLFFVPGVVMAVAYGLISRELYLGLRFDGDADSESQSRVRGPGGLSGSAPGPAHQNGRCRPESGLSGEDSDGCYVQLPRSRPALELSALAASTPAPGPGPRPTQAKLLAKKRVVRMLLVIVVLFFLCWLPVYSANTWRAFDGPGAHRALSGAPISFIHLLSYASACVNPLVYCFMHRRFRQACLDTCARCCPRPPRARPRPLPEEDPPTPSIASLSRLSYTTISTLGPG
Protocol: as §1, §2
(1) Gastrin Receptor Antagonism
Preparation of gastric glands
Male Hadley guinea pigs (450-600 g) were killed by bleeding and stomach was extracted from each animal immediately, from which gastric glands were prepared.
Preparation of test compounds and procedures of displacing assay A 1M solution of a compound to be tested in DMSO is prepared and diluted with 50% DMSO to obtain a ten-fold dilution series.
The reaction is initiated by the addition of gastric glands to solutions of different concentration each containing ^125 I-labeled gastrin (final concentration, 0.2 nM). The mixture is incubated for 30 min at 25° C., centrifuged at 2000 rpm for 5 min and the supernatant is removed by aspiration. To the pellet is added ice-cooled incubation buffer and mixed gently, followed by an immediate centrifugation and removal of the supernatant by aspiration. The radioactivity is counted on gamma counter. The same procedure was repeated using 50% DMSO solution or human gastrin I (final concentration, 2 μM) instead of a solution of test compound so as to obtain the control value regarding total binding or the value regarding non-specific binding, respectively.
as §7

gastric acid secretion = experiment: Inhibitory effect on pentagastrin-stimulated gastric acid secretion in anesthetized rat (perfused stomach, Schild method); format: in vivo, rat (Sprague Dawley); details: intraduodenal (i.d.), 0.5% M.C. suspension
Text: Anti-acid secreting function of carbamoylmethylurea derivative (I) of the present invention has been confirmed by the in vivo experiment (cf. Schild Method; Experiment 1 below). […] From the results of these experiments, it is apparent that the carbamoylmethylurea derivative (I) has an anti-acid secreting function, and is an excellent gastrin receptor antagonist and/or CCK-B receptor antagonist which has enough functional separativeness from CCK-A receptor.
Experiment 1 In Vivo Test
Evaluation of Inhibitory Effect on Gastric Acid Secretion by Child Method
Twenty four hour starved (ad libitum for water) male Sprague Daily rats (8-week-old) were anesthetized with urethane (1.5 g/kg S.C.) and kept breathing with esophagus cannulas. After laparotomy, esophagus cannulas were inserted orally up to proventriculus and ligated around gastric cardiac. Perfusion cannulas were inserted from duodenum into stomach and ligated around pylorus. Another cannulas were placed into duodenum and ligated for administration of drug. After sutra of abdomen, stomach was perfused via the esophagus cannulas with physiological saline (37° C.) while collecting perfusate for a 15 min interval. The perfusate was subjected to titration with 0.001N NaOH solution to determine the acidity. When the basal acid secretion became stable, pentagastrin ([…])was administered in a sustained manner via common carotid vein for about 90 min until the acid secretion reached approximately the highest level, when a test compound (0.5% M.C. suspension) was administered into duodenum through cannulas. The perfusate was collected for a 15 min interval to monitor the acid secretion for 90 min. The percent inhibition was calculated as follows:
Percent inhibition (%)=100×(A-B)/(C-B)
A: the minimum value of total acidity observed after the administration of a test compound;
B: the total acidity obtained immediately before the administration of pentagastrin; and
C: the total acidity obtained immediately before the administration of a test compound.

Structure (SMILES) | IC50 (CCK-B receptor) [nM] | IC50 (CCK-A receptor) [nM] | IC50 (gastrin receptor) [nM] | Inhibitory Effect on acid secretion in rat ED50, i.d. (gastric acid secretion) [mg/kg] | Inhibitory Effect on acid secretion in rat ED50, i.d. (gastric acid secretion; sodium salt) [mg/kg] | Inhibitory Effect on acid secretion in rat ED50, i.d. (gastric acid secretion; calcium salt) [mg/kg] | ED50 (gastric acid secretion; Rattus norvegicus) [mg/kg]
CC(C)(C)OC(=O)CN(C(=O)CNC(=O)Nc1cccc(-c2nnn(C(c3ccccc3)(c3ccccc3)c3ccccc3)n2)c1)c1ccccc1C(=O)c1ccccc1 [Compound 7f, 2-(N-(tert-Butoxycarbonylmethyl)-N'-(m-(2-(triphenylmethyl)tetrazol-5-yl)phenyl)ureidomethylcarbonylamino)benzophenone] | 8 | 1650 | 1 |  |  |  | 
CC(C)(C)OC(=O)CN(C(=O)CNC(=O)Nc1ccc(Cl)cc1)c1ccccc1C(=O)c1ccccc1 [Compound 7y, 2-(N-(tert-Butoxycarbonylmethyl)-N'-(p-chlorophenyl)ureidomethylcarbonylamino)benzophenone] | 190 | 1800 | 42 |  |  |  | 
Cc1ccc(NC(=O)NCC(=O)N(CC(=O)OC(C)(C)C)c2ccccc2C(=O)c2ccccc2)cc1 [Compound 7z, 2-(N-(tert-Butoxycarbonylmethyl)-N'-(p-tolyl)ureidomethylcarbonylamino)benzophenone] | 66 | 1900 | 6 |  |  |  | 
CC(C)(C)OC(=O)CN(C(=O)CNC(=O)Nc1cccc(C(=O)O)c1)c1ccccc1C(=O)c1ccccc1 [Compound 8h] | 64 | 5000 | 4 | 0.014 |  |  | 
CC(C)(C)OC(=O)CN(C(=O)CNC(=O)Nc1cccc(C(=O)O)c1)c1ccccc1C(=O)c1ccccc1 [Compound 8ha, 2-[(tert-Butoxycarbonylmethyl)-[3-(m-(carboxylphenyl)ureidomethylcarbonyl]]aminobenzophenone sodium salt] | 42 | 3400 | 2 |  | 0.003 |  | 
CC(C)(C)OC(=O)CN(C(=O)CNC(=O)Nc1cccc(C(=O)O)c1)c1ccccc1C(=O)c1ccccc1 [Compound 8hb, 2-[(tert-Butoxycarbonylmethyl)-[3-(m-(carboxyphenyl)ureidomethylcarbonyl]]aminobenzophenone calcium salt] | 54 |  | 3 |  |  | 0.007 | 
CC(C)(C)OC(=O)CN(C(=O)CNC(=O)Nc1cccc(CC(=O)O)c1)c1ccccc1C(=O)c1ccccc1 [Compound 8i, 2-(N-(tert-Butoxycarbonylmethyl)-N'-(m-(carboxymethyl)phenyl)ureidomethylcarbonylamino)benzophenone] | 3 | 1700 | 2 |  |  |  | 
CC(C)(C)OC(=O)CN(C(=O)CNC(=O)Nc1cccc(OCC(=O)O)c1)c1ccccc1C(=O)c1ccccc1 [Compound 8j, 2-(N-(tert-Butoxycarbonylmethyl)-N'-(m-(carboxymethyloxy)phenyl)ureidomethylcarbonylamino)benzophenone] | 8 | 2200 | 3 |  |  |  | 
COC(=O)c1cccc(NC(=O)NCC(=O)N(CC(=O)OC(C)(C)C)c2ccccc2C(=O)c2ccccc2)c1 [Compound 9l, 2-(N-(tert-Butoxycarbonylmethyl)-N'-(m-(carbomethoxy)phenyl)ureidomethylcarbonylamino)benzophenone] | 56 | 1350 | 7 |  |  |  | 0.04
COC(=O)Cc1cccc(NC(=O)NCC(=O)N(CC(=O)OC(C)(C)C)c2ccccc2C(=O)c2ccccc2)c1 [Compound 9m] | 11 | 1350 | 2 |  |  |  | 
CC(C)(C)OC(=O)CN(C(=O)CNC(=O)Nc1cccc(C(=O)O)c1)c1ccccc1C(=O)C1CCCCC1 [Compound 15d, Cyclohexyl-(2-(N-(t-butoxycarbonylmethyl)-N-(N'-(m-carboxyphenyl)ureidomethylcarbonyl)amino)phenyl)ketone] | 6 | 2000 | 3 |  |  |  | 
C=CCOC(=O)c1cccc(NC(=O)NCC(=O)N(CC(=O)NC(C)(C)C)c2ccccc2C(=O)c2ccccc2)c1 [Compound 16a, 2-(N-(tert-Butylcarbamoylmethyl)-N'-(m-(aryloxycarbamoyl)phenyl)ureidomethylcarbonylamino)benzophenone] | 215 | 4400 | 25 |  |  |  | 
CC(C)(C)NC(=O)CN(C(=O)CNC(=O)Nc1cccc(C(=O)O)c1)c1ccccc1C(=O)c1ccccc1 [Compound 16b, 2-(N-(tert-Butylcarbamoylmethyl)-N'-(m-carboxyphenyl)ureidomethylcarbonylamino)benzophenone] | 210 | > 10000 | 6 |  |  |  | 
